These results are taken from patent publication US20240300980A1, “HETEROCYCLIC COMPOUNDS AS KRAS INHIBITOR, AND PREPARATION THEREFOR AND USE THEREOF IN TREATMENT” (SHANGHAI KECHOW PHARMA, INC., priority 2021, published 2024).

For the first experiment, the system named is AGS cells (KRAS^G12D). The experiment can be described thus: Detection of cell proliferation in vitro by MTT/MTS method (cell activity experiment). Format: cell-based. Particulars: AGS cells; MTT/MTS; 3 days of drug treatment; read-out: AGS IC50. The gist of the method:
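After 3-day compound exposure (final DMSO 0.5%), viability of AGS (KRAS G12D) cells, plated 1000/well one day before dosing, was measured at 490 nm following 4 h MTT or MTS incubation. IC50 was fitted from dose–effect curves relative to DMSO-treated wells.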
Background: Tetrazolium assays rely on reduction of a dye to a coloured formazan, in cell work by metabolically active cells.
Take `CC1CCCc2cc(O)cc(-c3ccc4c(N5C[C@H]6CC[C@@H](C5)N6)nc(OC[C@@]56CCCN5C[C@H](F)C6)nc4c3F)c21` (single isomer, unassigned) [Example 288]: the IC50 (in general, the concentration that gives 50% inhibition) came to 7.2 nM.

The experiment is the same for the next values; noted with them: Homo sapiens, AGS, 72 h, AGS cells; MTT/MTS; 3 days of drug treatment; read-out: AGS IC50.
`Oc1cc(N2CCc3c(nc(OC[C@@]45CCCN4C[C@H](F)C5)nc3N3C[C@H]4CC[C@@H](C3)N4)C2)c2c(F)cccc2c1` [Example 205, 4-(4-((1R,5S)-3,8-diazabicyclo[3.2.1]octan-3-yl)-2-(((2R,7aS)-2-fluorotetrahydro-1H-pyrrolizin-7a(5H)-yl)methoxy)-5,8-dihydropyrido[3,4-d]pyrimidin-7(6H)-yl)-5-fluoronaphthalen-2-ol]: the IC50 turned out to be 18 nM. Same read-out and setting: with `Oc1cc(-c2ccc3c(N4C[C@H]5CC[C@@H](C4)N5)nc(OC[C@@]45CCCN4C[C@H](F)C5)nc3n2)c2c(F)cccc2c1` [Example 143, 4-(4-((1R,5S)-3,8-diazabicyclo[3.2.1]octan-3-yl)-2-(((2R,7aS)-2-fluorotetrahydro-1H-pyrrolizin-7a(5H)-yl)methoxy)pyrido[2,3-d]pyrimidin-7-yl)-5-fluoronaphthalen-2-ol] the figure was greater than 2500 nM; with `O=C1CCc2cc(O)cc(-c3ncc4c(N5C[C@H]6CC[C@@H](C5)N6)nc(OC[C@@]56CCCN5C[C@H](F)C6)nc4c3F)c21` [Example 250, 7-(4-((1R,5S)-3,8-diazabicyclo[3.2.1]octan-3-yl)-8-fluoro-2-(((2R,7aS)-2-fluorotetrahydro-1H-pyrrolizin-7a(5H)-yl)methoxy)pyrido[4,3-d]pyrimidin-7-yl)-5-hydroxy-2,3-dihydro-1H-inden-1-one], greater than 2500 nM. Take `CC1CCCc2cc(O)cc(-c3ccc4c(N5C[C@H]6CC[C@@H](C5)N6)nc(OC[C@@]56CCCN5C[C@H](F)C6)nc4c3F)c21` (stereo partly drawn) [Example 282, 4-(4-((1R,5S)-3,8-diazabicyclo[3.2.1]octan-3-yl)-8-fluoro-2-(((2R,7aS)-2-fluorotetrahydro-1H-pyrrolizin-7a(5H)-yl)methoxy)quinazolin-7-yl)-5-methyl-5,6,7,8-tetrahydronaphthalen-2-ol]: the IC50 was 15 nM. For the compound `CC1CCc2cc(O)cc(-c3ncc4c(N5C[C@H]6CC[C@@H](C5)N6)nc(OC[C@@]56CCCN5C[C@H](F)C6)nc4c3F)c21` (stereo partly drawn) [Example 223, 7-(4-((1R,5S)-3,8-diazabicyclo[3.2.1]octan-3-yl)-8-fluoro-2-(((2R,7aS)-2-fluorotetrahydro-1H-pyrrolizin-7a(5H)-yl)methoxy)pyrido[4,3-d]pyrimidin-7-yl)-1-methyl-2,3-dihydro-1H-inden-5-ol], the half-maximal inhibitory concentration (IC50) is 14 nM. Same read-out and setting: to `C#Cc1c(F)ccc2cc(O)cc(-c3ncc4c(N5C[C@H]6CC[C@@H](C5)S6)nc(OC[C@@]56CCCN5C[C@H](F)C6)nc4c3F)c12` [Example 21, 4-(4-((1R,5S)-8-thia-3-azabicyclo[3.2.1]octan-3-yl)-8-fluoro-2-(((2R,7aS)-2-fluorotetrahydro-1H-pyrrolizin-7a(5H)-yl)methoxy)pyrido[4,3-d]pyrimidin-7-yl)-5-ethynyl-6-fluoronaphthalen-2-ol] belongs 269 nM; to `Oc1cc(-c2ncc3c(N4CC5CCC(C4)C5F)nc(OC[C@@]45CCCN4C[C@H](F)C5)nc3c2F)c2c(F)c(F)ccc2c1` (stereo partly drawn) [Example 37, 5,6-difluoro-4-(8-fluoro-4-((1R,5S,8R)-8-fluoro-3-azabicyclo[3.2.1]octan-3-yl)-2-(((2R,7aS)-2-fluorotetrahydro-1H-pyrrolizin-7a(5H)-yl)methoxy)pyrido[4,3-d]pyrimidin-7-yl) naphthalen-2-ol], greater than 2500 nM. Still for that read-out and setting: to `C#Cc1c(F)ccc2cc(O)cc(-c3ncc4c(N5CCC(N)C5)nc(OC[C@@]56CCCN5C[C@H](F)C6)nc4c3F)c12` (stereo partly drawn) [Example 51, 4-(4-(3-aminopyrrolidin-1-yl)-8-fluoro-2-(((2R, 7aS)-2-fluorotetrahydro-1H-pyrrolizin-7a(5H)-yl)methoxy)pyrido[4,3-d]pyrimidin-7-yl)-5-ethynyl-6-fluoronaphthalen-2-ol] belongs 1660 nM; to `C#Cc1c(F)ccc2cc(O)cc(-c3ncc4c(N5CCC6(CC5)CO[C@@H](C)[C@H]6N)nc(OC[C@@]56CCCN5C[C@H](F)C6)nc4c3F)c12` [Example 55, 4-(4-((3S,4S)-4-amino-3-methyl-2-oxa-8-azaspiro[4.5]decan-8-yl)-8-fluoro-2-(((2R, 7aS)-2-fluorotetrahydro-1H-pyrrolizin-7a(5H)-yl)methoxy)pyrido[4,3-d]pyrimidin-7-yl)-5-ethynyl-6-fluoronaphthalen-2-ol], greater than 2500 nM. On the same count and under the same terms, to `C#Cc1c(F)ccc2cc(O)cc(-c3ccc4c(N5C[C@H]6CC[C@@H](C5)N6)nc(OC[C@]56CCCN5[C@@H](COC(=O)N(C)C)CC6)nc4c3F)c12` [Example 96, ((3R,7aR)-7a-(((4-((1R,5S)-3,8-diazabicyclo[3.2.1]octan-3-yl)-7-(8-ethynyl-7-fluoro-3-hydroxynaphthalen-1-yl)-8-fluoroquinazolin-2-yl)oxy)methyl)hexahydro-1H-pyrrolizin-3-yl)methyl dimethylcarbamate] belongs 7.9 nM; to `C#Cc1c(F)ccc2cc(O)cc(-c3ncc4c(N5C[C@H]6CC[C@@H](C5)N6)c(C#N)c(OC[C@@]56CCCN5C[C@H](F)C6)nc4c3F)c12` [Example 191, 4-((1R,5S)-3,8-diazabicyclo[3.2.1]octan-3-yl)-7-(8-ethynyl-7-fluoro-3-hydroxynaphthalen-1-yl)-8-fluoro-2-(((2R,7aS)-2-fluorotetrahydro-1H-pyrrolizin-7a(5H)-yl)methoxy)-1,6-naphthyridine-3-carbonitrile], 120 nM. Turning to `CCc1c(F)ccc2cc(O)cc(-c3ccc4c(N5C[C@H]6CC[C@@H](C5)S6(=O)=O)nc(OC[C@@]56CCCN5C[C@H](F)C6)nc4c3F)c12` [Example 163, (1R,5S)-3-(7-(8-ethyl-7-fluoro-3-hydroxynaphthalen-1-yl)-8-fluoro-2-(((2R,7aS)-2-fluorotetrahydro-1H-pyrrolizin-7a(5H)-yl)methoxy)quinazolin-4-yl)-8-thia-3-azabicyclo[3.2.1]octane 8,8-dioxide], the concentration for half-maximal inhibition (IC50) was greater than 2500 nM. On the same count and under the same terms, with `Oc1cc(-c2ncc3c(N4C[C@H]5CC[C@@H](C4)O5)nc(OC[C@@]45CCCN4C[C@H](F)C5)nc3c2F)c2c(F)cccc2c1` [Example 15, 4-(4-((1R,5S)-8-oxa-3-azabicyclo[3.2.1]octan-3-yl)-8-fluoro-2-(((2R,7aS)-2-fluorotetrahydro-1H-pyrrolizin-7a(5H)-yl)methoxy)pyrido[4,3-d]pyrimidin-7-yl)-5-fluoronaphthalen-2-ol] the figure was 320 nM. Same read-out and setting: with `CC[C@@H]1CCc2cc(O)cc(-c3ncc4c(N5CC6CCC(C5)N6)nc(OC[C@@]56CCCN5C[C@H](F)C6)nc4c3F)c21` (single isomer, unassigned) [Example 221, (R)-7-(4-((1R,5S)-3,8-diazabicyclo[3.2.1]octan-3-yl)-8-fluoro-2-(((2R,7aS)-2-fluorotetrahydro-1H-pyrrolizin-7a(5H)-yl)methoxy)pyrido[4,3-d]pyrimidin-7-yl)-1-ethyl-2,3-dihydro-1H-inden-5-ol or (S)-7-(4-((1R,5S)-3,8-diazabicyclo[3.2.1]octan-3-yl)-8-fluoro-2-(((2R,7aS)-2-fluorotetrahydro-1H-pyrrolizin-7a(5H)-yl)methoxy)pyrido[4,3-d]pyrimidin-7-yl)-1-ethyl-2,3-dihydro-1H-inden-5-ol] the figure was 875 nM.
